Experimental data from patent US20240115557A1, “INHIBITORS OF RNA-GUIDED NUCLEASES AND USES THEREOF” (The Brigham and Women's Hospital, Inc., priority 2022, published 2024).

Assays:
SpCas9 = SpCas9 (Streptococcus pyogenes serotype M1, UniProt Q99ZW2); experiment: Strand displacement assay (SDA) / cumulative activity assay (CAA), SpCas9 primary screen; assay type: biochemical; conditions: Primary Screen (150 min); for Normalized Z score 1: replicate 1; for Normalized Z score 2: replicate 2
Description: Screening of inhibitors was via a high throughput pipeline, as depicted in FIG. 29. The first screening is via a strand displacement assay (SDA) for detecting nuclease activity (FIG. 27A, 28A). The Cpf1/Cas12 protein/DNA complex has a different structure from Cas9 and requires optimization of the potential fluorophore attachment sites (Yamano, T et al., Cell, 2016). (FIG. 28A). Next screened compounds are evaluated in an eGFP cell assay, and for eGFP dose. Those compounds are further narrowed via a HiBiT assay and finally evaluated in the surveyor assay. SAR evaluations are performed to arrive at lead compounds for further evaluations and variations. General methodology for the assays is as described in at [0253]-[0301] of U.S. Patent Application 62/831,143 filed Apr. 8, 2019, incorporated herein by reference.
The 3′ end of the displacing single-stranded DNA was labeled with a quencher. Following nuclease cleavage of the substrate, the 3′-labeled quenching DNA strand (present in excess) could outcompete the weakly held 3′ strand to anneal to the 5′ strand. The resulting FRET fluorescence quenching provides an optical readout for nuclease activity (FIG. 62A).
Typically, SpCas9: gRNA (1:1.2 ratio) RNP was pre-formed at 1 μM in Cas9 assay buffer (20 mM Tris-HCl, pH=7.5, 100 mM KCl, 5 mM MgCl2) for 5 min at 4° C. before diluting to 10 nM in Cas9 assay buffer (2× final concentration). 25 μL of the Cas9 2× stock was manually dispensed to a black 384-well plate (Corning 3575) using electronic pipette. […] Following this, pre-annealed Alexa-Fluor 647 labeled substrate and quencher were also diluted to 1 nM and 5 nM in Cas9 assay buffer, respectively (2× stock solution). Next, 25 μL of the substrate/quencher solution was added manually to each well of the Cas9-containing 384-well plates using an electronic pipette and was incubated at 37° C. for 2.5 h. Fluorescent signals were read with the microplate reader set to read Alexa-Fluor 647 fluorescence. Assay was performed similarly with SaCas9 and FnCas12a using the respective enzyme, gRNA, substrate, and quencher oligos. […]

SaCas9 = target: T1, SaCas9 (Staphylococcus aureus, UniProt J7RUA5); experiment: Strand displacement assay, SaCas9 primary screen; assay type: biochemical; conditions: for Auto Zscore Rep 1 / Auto Zscore Rep 2 / Normalized Zscore Rep 1 / Normalized Zscore Rep 2: SaCas9 primary screen; for Auto Zscore Rep 1 / Normalized Zscore Rep 1: replicate 1; for Auto Zscore Rep 2 / Normalized Zscore Rep 2: replicate 2; for Normalized Zscore Rep 1 / Normalized Zscore Rep 2: weaker potential hits; for 3 sigma Hit: flag 1 = hit at 3 sigma; for 5 sigma Hit: flag 1 = hit at 5 sigma
T1 sequence (J7RUA5 1-1053): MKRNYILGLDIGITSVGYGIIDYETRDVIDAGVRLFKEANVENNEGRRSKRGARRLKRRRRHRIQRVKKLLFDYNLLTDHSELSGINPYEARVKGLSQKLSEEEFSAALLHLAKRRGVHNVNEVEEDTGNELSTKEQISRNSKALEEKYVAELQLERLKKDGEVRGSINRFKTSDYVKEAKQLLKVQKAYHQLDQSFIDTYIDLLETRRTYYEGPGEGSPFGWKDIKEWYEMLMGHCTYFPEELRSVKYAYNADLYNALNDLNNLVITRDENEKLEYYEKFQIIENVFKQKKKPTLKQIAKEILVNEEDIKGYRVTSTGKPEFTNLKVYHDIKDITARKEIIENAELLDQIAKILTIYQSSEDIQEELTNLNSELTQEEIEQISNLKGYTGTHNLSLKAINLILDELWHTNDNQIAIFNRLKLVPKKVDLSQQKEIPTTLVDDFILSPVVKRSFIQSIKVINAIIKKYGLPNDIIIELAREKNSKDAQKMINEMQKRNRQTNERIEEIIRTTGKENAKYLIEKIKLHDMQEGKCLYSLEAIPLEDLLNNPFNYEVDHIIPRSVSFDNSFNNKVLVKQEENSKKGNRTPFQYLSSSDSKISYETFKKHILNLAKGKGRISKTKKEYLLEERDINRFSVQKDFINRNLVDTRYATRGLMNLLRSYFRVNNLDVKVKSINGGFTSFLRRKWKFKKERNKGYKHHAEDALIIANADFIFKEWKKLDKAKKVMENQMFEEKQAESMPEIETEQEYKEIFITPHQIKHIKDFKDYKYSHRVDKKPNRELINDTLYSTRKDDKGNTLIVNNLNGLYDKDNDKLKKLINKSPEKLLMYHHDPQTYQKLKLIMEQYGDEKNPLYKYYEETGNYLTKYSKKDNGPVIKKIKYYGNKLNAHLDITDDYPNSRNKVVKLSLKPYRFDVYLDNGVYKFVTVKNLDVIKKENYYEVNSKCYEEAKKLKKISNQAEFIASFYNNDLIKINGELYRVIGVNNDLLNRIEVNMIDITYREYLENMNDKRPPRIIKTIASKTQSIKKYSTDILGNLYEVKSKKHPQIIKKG
Procedure, shortened: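 Cas9 RNP (1:1.2 protein:gRNA) pre-formed in 20 mM Tris-HCl pH 7.5, 100 mM KCl, 5 mM MgCl2, used at 10 nM (2× stock) with Alexa-Fluor 647 substrate/quencher at 1 nM/5 nM (2× stock). Reaction ran 2.5 h at 37°C; strand displacement read as fluorescence. Hits called by Z-score: 3–5σ weak, >5σ strong.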

Chain of SpCas9 (Q99ZW2 whole entry): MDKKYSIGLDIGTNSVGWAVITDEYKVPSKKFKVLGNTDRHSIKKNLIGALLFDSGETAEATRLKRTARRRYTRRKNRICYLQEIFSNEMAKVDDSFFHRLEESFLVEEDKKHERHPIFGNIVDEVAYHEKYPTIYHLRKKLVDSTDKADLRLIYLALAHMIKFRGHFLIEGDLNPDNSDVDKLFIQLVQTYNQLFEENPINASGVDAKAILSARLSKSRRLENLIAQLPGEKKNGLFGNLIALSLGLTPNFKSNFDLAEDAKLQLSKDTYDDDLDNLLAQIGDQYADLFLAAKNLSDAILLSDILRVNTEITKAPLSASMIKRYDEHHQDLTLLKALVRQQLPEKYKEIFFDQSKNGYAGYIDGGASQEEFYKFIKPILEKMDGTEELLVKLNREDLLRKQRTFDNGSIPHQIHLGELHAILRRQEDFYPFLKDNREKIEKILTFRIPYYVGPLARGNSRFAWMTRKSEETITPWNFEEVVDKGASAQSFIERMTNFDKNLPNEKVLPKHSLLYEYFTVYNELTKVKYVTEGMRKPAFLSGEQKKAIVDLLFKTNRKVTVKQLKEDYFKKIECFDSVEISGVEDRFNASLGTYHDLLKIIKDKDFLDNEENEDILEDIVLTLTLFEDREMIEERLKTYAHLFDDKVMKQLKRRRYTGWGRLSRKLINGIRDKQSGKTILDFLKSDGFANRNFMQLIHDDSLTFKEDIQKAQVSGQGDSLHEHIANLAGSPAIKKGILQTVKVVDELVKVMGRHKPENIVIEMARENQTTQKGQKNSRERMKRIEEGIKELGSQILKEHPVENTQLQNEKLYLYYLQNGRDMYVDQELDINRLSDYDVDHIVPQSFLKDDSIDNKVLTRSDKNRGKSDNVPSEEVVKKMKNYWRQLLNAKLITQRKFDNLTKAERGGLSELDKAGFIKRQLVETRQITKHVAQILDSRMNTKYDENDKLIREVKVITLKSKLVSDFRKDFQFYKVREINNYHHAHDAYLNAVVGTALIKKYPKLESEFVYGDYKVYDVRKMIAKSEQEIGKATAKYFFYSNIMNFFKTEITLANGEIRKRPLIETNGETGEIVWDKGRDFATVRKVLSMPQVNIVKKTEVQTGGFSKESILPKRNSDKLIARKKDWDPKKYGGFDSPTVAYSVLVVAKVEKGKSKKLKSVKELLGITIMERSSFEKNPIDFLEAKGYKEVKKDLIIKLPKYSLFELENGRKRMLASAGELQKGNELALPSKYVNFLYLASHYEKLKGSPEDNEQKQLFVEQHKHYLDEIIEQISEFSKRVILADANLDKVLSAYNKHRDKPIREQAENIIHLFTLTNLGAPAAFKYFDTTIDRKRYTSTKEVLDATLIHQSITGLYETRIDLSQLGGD

SMILES	Auto Zscore Rep 1 (SaCas9)	Auto Zscore Rep 2 (SaCas9)	Normalized Zscore Rep 1 (SaCas9)	Normalized Zscore Rep 2 (SaCas9)	3 sigma Hit (SaCas9)	5 sigma Hit (SaCas9)	Average Normalized Z score (SpCas9)	avg z score primary (SpCas9)	Normalized Z score 1 (SpCas9)	Normalized Z score 2 (SpCas9)	Average Normalized Z score (SpCas9; average of replicates)
COc1ccc(C(=O)Oc2cc(-c3ccc(OC)c(OC)c3)cc(=O)c3c(C)oc(C)c23)cc1 [Compound D132-0053]							0.20	3.32	0.21	0.19	
CCCCC(=O)Nc1ccc(N2CCC(C(N)=O)(N3CCCCC3)CC2)c(C(=O)O)c1 [Compound G889-0171]							0.07	3.38	0.07	0.07	
CN1CCN(c2ccc(CNC(=O)Cn3ccc4c(SCc5ccccc5)nccc43)cc2)CC1 [Compound M056-0617]								4.82	0.05	0.07	0.06
O=C([O-])C(O)Cc1ccc(O)c(O)c1.[Na+] (stereo not drawn) [Compound S2401]								4.93	0.22	0.29	0.25
Cl.NC(CO)C(=O)NNCc1ccc(O)c(O)c1O (stereo not drawn) [Compound S2453]								5.09	0.21	0.32	0.26
CCCN(CCC)C1=CC(=O)C(C)=C(C)C1=O [Compound T0502-3042]								4.92	0.32	0.30	0.31
CCN(Cc1ccccc1)c1ccc(NS(=O)(=O)c2c(C)cc(C)cc2C)cc1C(=O)O [Cpd F294-0002]	−0.1185	0.01199	0.2241	0.205	1	1					
CCN(Cc1ccccc1)c1ccc(NS(=O)(=O)c2ccccc2)cc1C(=O)O [Cpd F294-0004]	−1.138	−1.139	0.2186	0.1863	1						
CCN(Cc1ccccc1)c1ccc(NS(=O)(=O)CC)cc1C(=O)O [Cpd F294-0006]	−0.2858	−0.7265	0.1668	0.1791	1						
CCN(Cc1ccccc1)c1ccc(NS(C)(=O)=O)cc1C(=O)O [Cpd F294-0009]	0.01198	0.247	0.1769	0.155	1						
CCN(Cc1ccccc1)c1ccc(NS(=O)(=O)c2cc(C)ccc2C)cc1C(=O)O [Cpd F294-0010]	−0.2001	1.494	0.1692	0.1845	1						

Now from value to molecule, other results behind:

Auto Zscore Rep 1 (SaCas9)	Auto Zscore Rep 2 (SaCas9)	Normalized Zscore Rep 1 (SaCas9)	Normalized Zscore Rep 2 (SaCas9)	3 sigma Hit (SaCas9)	5 sigma Hit (SaCas9)	SMILES	Average Normalized Z score (SpCas9)	avg z score primary (SpCas9)	Normalized Z score 1 (SpCas9)	Normalized Z score 2 (SpCas9)	Average Normalized Z score (SpCas9; average of replicates)
−1.677	−1.264	0.1772	0.1434	1		CCN(Cc1ccccc1)c1ccc(NS(=O)(=O)c2cc(OC)ccc2OC)cc1C(=O)O [Cpd F294-0012]					
−0.7997	−0.2997	0.2452	0.1681	1	1	O=C(O)c1cc(NS(=O)(=O)N2CCOCC2)ccc1N1CCCC(CN2CCCC2)C1 (stereo not drawn) [Cpd F294-1002]					
−0.4204	−0.1511	0.1614	0.1636	1		Cc1cccc(NC(=O)C2CCCN(c3ccc(-c4ccccc4)nn3)C2)c1 (stereo not drawn) [Cpd F305-0007]					
0.5613	0.7691	0.6053	0.6033	1	1	COc1ccc(-c2nc(N)s[n+]2-c2ccccc2)cc1 [Cpd T0501-2049]					
0.7411	0.4717	0.507	0.5892	1	1	C=C1C(C(=O)NCc2ccco2)C1C(=O)NCc1ccco1 (stereo not drawn) [Cpd T0501-2919]					
1.379	1.343	0.1426	0.123	1		O=C1c2cccc3cccc(c23)N1S(=O)(=O)c1cccs1 [Cpd T0503-3218]					
1.662	−1.14	0.2923	0.2417	1	1	Cc1ccc(C)c(SCC(=O)NC(C)C(c2ccccc2)N2CCOCC2)c1 (stereo not drawn) [Cpd T0507-0044]					
−2.33	−1.326	0.1931	0.165	1		O=C(CSc1ccc2ccccc2c1)N1CCN(c2ccc(O)cc2)CC1 [Cpd T0508-7813]					
0.8861	0.3048	0.4351	0.3562	1	1	O=C(CSc1ccc2ccccc2c1)NCCc1ccc(O)c(O)c1 [Cpd T0509-3636]					
1.126	−0.9366	0.1436	0.1737	1		Cc1ccc(C)n1CCN1CCN(S(=O)(=O)c2ccccc2)CC1 [Cpd T0510-3387]					
−1.3165	0.881	0.3066	0.3358	1	1	O=C(CSc1nnc2ccccn12)N1CCc2ccccc2C1 [Cpd T0512-2617]					
0.05393	−1.233	0.4933	0.4517	1	1	Cc1cc(Nc2ccccc2)n(-c2ccccc2C(=O)O)n1 [Cpd T0513-3165]					
0.257	0.3998	0.4361	0.4132	1	1	O=C1CC(NC(=O)c2ccc(Cl)cc2)C(=O)N1 (stereo not drawn) [Cpd T0513-4457]					
